This note sets out measurements from PMC4995097, “Talin-KANK1 interaction controls the recruitment of cortical microtubule stabilizing complexes to focal adhesions” (eLife, 2016).

This assay relates to LL5β at the cell edge of HeLa cells. Kind of assay: Peripheral clustering of LL5β. The format is cell-based, human. The following applies: talin1/2-depleted HeLa rescue (Fig 4G); mean, n = 12, SEM 4.85049. Here is the method:
HeLa Kyoto cell line was described previously ([Lansbergen et al., 2006]; [Mimori-Kiyosue et al., 2005]). HEK293T cells were purchased from ATCC; culture and transfection of DNA and siRNA into these cell lines was performed as previously described ([van der Vaart et al., 2013]). HaCaT cells were purchased at Cell Line Service (Eppelheim, Germany) and cultured according to manufacturer’s instructions. The cell lines were routinely checked for mycoplasma contamination using LT07-518 Mycoalert assay (Lonza, Switzerland).The identity of the cell lines was monitored by immunofluorescence-staining-based analysis with multiple markers. Blebbistatin was purchased from Enzo Life Sciences and used at 50 μM. Serum starvation in HeLa cells was done for 48 hr and focal adhesion assembly was stimulated by incubation with fetal calf serum-containing medium with or without blebbistatin for 2 hr. ROCK1 inhibitor Y-27632 was purchased at Sigma-Aldrich and used at 1 or 10 μM. Double stable HeLa cell line expressing GFP-KANK1 and TagRFP-paxillin was made by viral infection. We used a pLVIN-TagRFP-paxillin-based lentivirus and a pQC-GFP-KANK1-based retrovirus packaged in HEK293T cells using respectively Lenti-X HTX packaging and pCL-Ampho vectors. Antibiotic selection was applied to cells 48 hr after infection using 500 μg/ml G418 (Geneticin, Life Technologies) and 1 μg/ml puromycin (InvivoGen).
Antibodies against HA and GFP tags, and liprin β1 used for Western blot analysis were previously described ([van der Vaart et al., 2013]). Rabbit antibodies against KANK1 (HPA005539) and KANK2 (HPA015643) were purchased at Sigma-Aldrich. Western blot analysis of KANK1 was performed using rabbit polyclonal KANK1 antibody (A301-882A) purchased at Bethyl Laboratories. Talin immunofluorescence staining was performed using mouse monoclonal 8d4 antibody (Sigma-Aldrich). Western blot analysis of talin 1 and 2 expression was performed using respectively the isotype specific mouse monoclonal 97H6 (Sigma-Aldrich) and 68E7 (Abcam) antibodies. Ku80 (7/Ku80) antibody was purchased from BD Biosciences. Immunofluorescence staining of KANK1, LL5β, liprin β1, KIF21A and CLASP2 in HeLa and HaCaT cells was performed using the antibodies and procedures previously described ([Lansbergen et al., 2006]; [van der Vaart et al., 2013]). F-actin was stained using Alexa Fluor 594-conjugated phalloidin (Life Technologies). Phospho-tyrosine mouse antibody (PT-66) was purchased from Sigma-Aldrich and rabbit FAK phospho-tyrosine 397 was purchased from Biosource.
Fixed samples and corresponding immunofluorescence images were acquired using widefield fluorescence illumination on a Nikon Eclipse 80i or Ni upright microscope equipped with a CoolSNAP HQ2 CCD camera (Photometrics) or a DS-Qi2 camera (Nikon) an Intensilight C-HGFI precentered fiber illuminator (Nikon), ET-DAPI, ET-EGFP and ET-mCherry filters (Chroma), Nikon NIS Br software, Plan Apo VC 100x NA 1.4 oil, Plan Apo Lambda 100X oil NA 1.45 and Plan Apo VC 60x NA 1.4 oil (Nikon) objectives. […]

In the case of “GFP-talin1-G1404L: GFP-tagged mouse talin1 with single point mutation G1404L”, the “Peripheral clustering of LL5β, percentage of control, AV, talin rescue” value was 20.7686 percentage of control condition average value.
